The record followed here is ChEMBL document CHEMBL1909046, “DrugMatrix in vitro pharmacology data”.

One assay addresses Insulin receptor (Rattus norvegicus, UniProt P15127). Type of assay: cell membranes, Wistar, Liver, Membrane.
Assay [1] concerns the target T1, 3-hydroxy-3-methylglutaryl-coenzyme A reductase (Homo sapiens, UniProt P04035).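 Further: enzyme inhibition assay of HMG-CoA reductase using radiolabeled [14C]HMG-CoA as substrate; in other assays of this panel Not Active means under 50% inhibition at 10 µM.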
T1 sequence (P04035 whole entry): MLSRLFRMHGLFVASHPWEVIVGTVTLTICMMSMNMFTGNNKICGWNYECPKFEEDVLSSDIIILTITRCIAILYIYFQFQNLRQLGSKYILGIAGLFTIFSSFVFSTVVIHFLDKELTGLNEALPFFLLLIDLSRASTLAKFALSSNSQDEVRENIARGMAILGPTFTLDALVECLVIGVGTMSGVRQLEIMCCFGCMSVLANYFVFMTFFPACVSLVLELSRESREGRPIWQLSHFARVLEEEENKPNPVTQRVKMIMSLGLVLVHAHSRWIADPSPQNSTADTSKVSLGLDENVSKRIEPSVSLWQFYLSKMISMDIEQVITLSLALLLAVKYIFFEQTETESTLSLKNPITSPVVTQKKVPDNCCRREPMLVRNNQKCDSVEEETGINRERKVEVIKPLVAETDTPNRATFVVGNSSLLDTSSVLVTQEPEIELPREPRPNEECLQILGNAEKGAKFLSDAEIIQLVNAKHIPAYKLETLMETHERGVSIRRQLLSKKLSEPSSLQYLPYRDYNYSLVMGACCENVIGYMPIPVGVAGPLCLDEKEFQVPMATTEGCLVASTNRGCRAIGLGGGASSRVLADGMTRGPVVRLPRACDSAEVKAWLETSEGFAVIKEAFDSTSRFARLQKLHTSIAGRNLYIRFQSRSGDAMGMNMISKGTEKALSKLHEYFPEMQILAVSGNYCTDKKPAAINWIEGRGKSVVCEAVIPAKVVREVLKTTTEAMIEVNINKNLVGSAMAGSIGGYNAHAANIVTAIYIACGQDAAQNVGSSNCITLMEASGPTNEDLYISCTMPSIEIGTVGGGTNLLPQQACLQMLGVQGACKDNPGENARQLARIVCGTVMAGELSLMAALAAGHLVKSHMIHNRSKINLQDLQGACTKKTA
Further details: species or system Escherichia coli.

For assay [2], the target named is Sodium-dependent noradrenaline transporter (Homo sapiens, UniProt P23975). The assay can be described thus: DRUGMATRIX: Norepinephrine Transporter radioligand binding (ligand: [125I] RTI-55). As to conditions: mdck; Not Active = under 50% inhibition at 10 µM. Type of assay: cell membranes, MDCK, Membrane.
Sequence of Sodium-dependent noradrenaline transporter (P23975 whole entry): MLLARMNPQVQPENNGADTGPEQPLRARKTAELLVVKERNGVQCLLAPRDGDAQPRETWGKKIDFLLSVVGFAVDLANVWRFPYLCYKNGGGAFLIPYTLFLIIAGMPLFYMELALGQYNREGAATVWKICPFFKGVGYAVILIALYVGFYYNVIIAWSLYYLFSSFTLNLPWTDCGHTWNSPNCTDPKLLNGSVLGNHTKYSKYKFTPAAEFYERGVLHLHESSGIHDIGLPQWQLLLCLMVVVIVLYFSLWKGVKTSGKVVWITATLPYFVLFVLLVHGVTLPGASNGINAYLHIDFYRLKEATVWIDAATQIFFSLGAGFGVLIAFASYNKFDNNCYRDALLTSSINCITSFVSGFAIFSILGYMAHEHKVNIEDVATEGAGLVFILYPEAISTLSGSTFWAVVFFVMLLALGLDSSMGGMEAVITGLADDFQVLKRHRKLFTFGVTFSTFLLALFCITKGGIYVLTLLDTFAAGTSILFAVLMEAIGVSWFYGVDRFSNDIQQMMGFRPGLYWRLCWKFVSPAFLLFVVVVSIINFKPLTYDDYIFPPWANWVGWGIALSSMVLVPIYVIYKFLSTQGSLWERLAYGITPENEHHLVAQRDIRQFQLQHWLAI
A further assay concerns the target T2, B2 bradykinin receptor (Homo sapiens, UniProt P30411). Further: in other assays of this panel Not Active means under 50% inhibition at 10 µM.
T2 sequence (P30411 whole entry): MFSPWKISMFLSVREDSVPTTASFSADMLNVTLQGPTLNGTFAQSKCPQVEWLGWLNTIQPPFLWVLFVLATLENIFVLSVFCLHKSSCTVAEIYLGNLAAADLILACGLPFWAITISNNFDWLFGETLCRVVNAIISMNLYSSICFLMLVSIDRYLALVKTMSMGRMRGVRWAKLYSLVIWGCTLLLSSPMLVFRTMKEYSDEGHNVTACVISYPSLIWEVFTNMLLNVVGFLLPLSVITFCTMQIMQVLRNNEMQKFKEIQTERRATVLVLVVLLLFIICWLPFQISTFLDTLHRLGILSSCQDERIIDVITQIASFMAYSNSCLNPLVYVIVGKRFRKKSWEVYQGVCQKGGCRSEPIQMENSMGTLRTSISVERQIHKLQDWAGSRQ
Type of assay: cell membranes, Membrane. As to conditions: chem-1.

The target of the next assay is Adenosine receptor A2a (Homo sapiens, UniProt P29274). The assay can be described thus: DRUGMATRIX: Adenosine A2A radioligand binding (ligand: […]). The format is cell membranes, HEK293, Membrane. As to conditions: hek293; Not Active = under 50% inhibition at 10 µM.
Sequence of Adenosine receptor A2a (P29274 whole entry): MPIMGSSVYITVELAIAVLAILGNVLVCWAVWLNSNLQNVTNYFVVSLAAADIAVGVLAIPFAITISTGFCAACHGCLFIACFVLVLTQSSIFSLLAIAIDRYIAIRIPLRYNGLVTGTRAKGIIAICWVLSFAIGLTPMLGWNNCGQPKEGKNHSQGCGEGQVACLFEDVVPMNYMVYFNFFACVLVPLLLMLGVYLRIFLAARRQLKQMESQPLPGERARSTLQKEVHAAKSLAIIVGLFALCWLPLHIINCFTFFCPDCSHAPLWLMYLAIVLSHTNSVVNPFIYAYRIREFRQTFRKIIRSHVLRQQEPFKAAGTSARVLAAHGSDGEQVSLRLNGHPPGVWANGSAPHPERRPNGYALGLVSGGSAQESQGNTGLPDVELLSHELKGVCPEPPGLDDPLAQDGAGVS
In assay [3] the target is T3, Angiotensin-converting enzyme (Oryctolagus cuniculus, UniProt P12822).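 Further: enzymatic inhibition of angiotensin-converting enzyme measured with FAPGG as the substrate; in other assays of this panel Not Active means under 50% inhibition at 10 µM.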
T3 sequence (P12822 whole entry): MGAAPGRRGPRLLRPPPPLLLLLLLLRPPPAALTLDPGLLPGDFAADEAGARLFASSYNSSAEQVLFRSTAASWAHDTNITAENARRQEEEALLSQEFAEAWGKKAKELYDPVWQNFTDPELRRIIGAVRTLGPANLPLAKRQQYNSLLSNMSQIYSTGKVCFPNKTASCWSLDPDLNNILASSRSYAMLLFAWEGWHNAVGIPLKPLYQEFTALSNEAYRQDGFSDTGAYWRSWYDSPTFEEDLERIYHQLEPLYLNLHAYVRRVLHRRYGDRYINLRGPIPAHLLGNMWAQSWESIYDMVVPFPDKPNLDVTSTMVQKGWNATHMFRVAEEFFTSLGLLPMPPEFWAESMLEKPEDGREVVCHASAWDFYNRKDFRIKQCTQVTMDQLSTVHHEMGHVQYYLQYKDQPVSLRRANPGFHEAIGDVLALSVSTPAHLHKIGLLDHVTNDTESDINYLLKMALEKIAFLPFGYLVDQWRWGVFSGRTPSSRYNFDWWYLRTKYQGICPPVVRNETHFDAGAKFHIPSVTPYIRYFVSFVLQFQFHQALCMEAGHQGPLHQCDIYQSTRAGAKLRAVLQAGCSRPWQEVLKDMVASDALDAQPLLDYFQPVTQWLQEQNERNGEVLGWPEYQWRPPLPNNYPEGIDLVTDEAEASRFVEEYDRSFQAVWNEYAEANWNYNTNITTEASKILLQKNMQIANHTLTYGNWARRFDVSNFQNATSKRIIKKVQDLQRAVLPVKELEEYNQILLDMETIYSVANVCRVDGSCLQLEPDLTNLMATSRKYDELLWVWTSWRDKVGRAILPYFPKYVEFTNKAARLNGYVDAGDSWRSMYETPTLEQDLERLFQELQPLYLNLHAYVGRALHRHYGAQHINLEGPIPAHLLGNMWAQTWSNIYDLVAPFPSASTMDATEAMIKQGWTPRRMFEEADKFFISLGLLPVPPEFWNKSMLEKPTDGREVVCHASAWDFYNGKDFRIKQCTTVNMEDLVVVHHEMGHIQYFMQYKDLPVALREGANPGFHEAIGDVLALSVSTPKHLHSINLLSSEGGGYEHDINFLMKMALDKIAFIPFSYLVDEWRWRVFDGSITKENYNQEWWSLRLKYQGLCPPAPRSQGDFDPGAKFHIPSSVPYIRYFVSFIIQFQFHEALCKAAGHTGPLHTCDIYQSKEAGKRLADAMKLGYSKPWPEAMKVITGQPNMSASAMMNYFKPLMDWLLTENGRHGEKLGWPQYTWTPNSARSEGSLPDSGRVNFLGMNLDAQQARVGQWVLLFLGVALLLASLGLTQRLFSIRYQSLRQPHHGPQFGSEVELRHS
Type of assay: tissue-based, Lung.

Sequence of Insulin receptor (P15127 27-759 limits assumed): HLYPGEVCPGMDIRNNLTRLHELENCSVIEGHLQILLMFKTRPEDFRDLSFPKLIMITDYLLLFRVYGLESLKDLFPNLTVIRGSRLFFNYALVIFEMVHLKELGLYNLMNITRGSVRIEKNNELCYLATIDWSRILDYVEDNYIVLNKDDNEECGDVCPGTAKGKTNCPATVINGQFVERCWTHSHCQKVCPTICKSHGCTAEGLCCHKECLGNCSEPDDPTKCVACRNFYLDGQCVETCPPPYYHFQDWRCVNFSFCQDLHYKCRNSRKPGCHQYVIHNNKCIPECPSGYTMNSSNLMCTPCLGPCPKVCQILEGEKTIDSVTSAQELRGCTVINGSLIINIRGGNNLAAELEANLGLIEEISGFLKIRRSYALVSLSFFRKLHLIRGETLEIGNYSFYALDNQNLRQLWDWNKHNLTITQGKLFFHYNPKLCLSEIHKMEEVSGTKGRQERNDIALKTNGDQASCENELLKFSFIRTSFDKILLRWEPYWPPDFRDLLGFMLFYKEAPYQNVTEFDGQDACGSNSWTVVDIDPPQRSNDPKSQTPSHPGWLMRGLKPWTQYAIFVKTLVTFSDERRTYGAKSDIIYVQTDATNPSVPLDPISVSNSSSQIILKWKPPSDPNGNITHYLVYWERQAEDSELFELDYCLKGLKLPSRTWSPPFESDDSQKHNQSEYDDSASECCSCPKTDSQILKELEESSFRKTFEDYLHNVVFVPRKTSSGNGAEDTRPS
Sequence of Insulin receptor (P15127 764-1383 limits assumed): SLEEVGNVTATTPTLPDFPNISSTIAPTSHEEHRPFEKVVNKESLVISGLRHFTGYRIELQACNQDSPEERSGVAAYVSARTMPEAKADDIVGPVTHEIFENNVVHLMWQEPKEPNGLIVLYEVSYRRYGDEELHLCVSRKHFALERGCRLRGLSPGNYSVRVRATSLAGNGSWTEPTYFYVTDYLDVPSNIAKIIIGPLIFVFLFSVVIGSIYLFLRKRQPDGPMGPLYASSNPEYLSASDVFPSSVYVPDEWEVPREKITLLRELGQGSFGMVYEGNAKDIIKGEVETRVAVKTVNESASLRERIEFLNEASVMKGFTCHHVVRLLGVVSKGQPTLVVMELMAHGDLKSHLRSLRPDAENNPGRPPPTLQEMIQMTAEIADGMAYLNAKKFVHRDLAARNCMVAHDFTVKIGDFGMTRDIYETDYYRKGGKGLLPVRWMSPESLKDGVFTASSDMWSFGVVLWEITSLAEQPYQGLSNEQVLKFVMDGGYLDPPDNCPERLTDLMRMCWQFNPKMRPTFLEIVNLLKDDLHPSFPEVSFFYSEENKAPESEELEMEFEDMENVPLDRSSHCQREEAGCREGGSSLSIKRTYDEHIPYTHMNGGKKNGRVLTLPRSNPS

What is called IC50 is the concentration that gives 50% inhibition. As to `CNC(=C[N+](=O)[O-])NCCSCc1csc(CN(C)C)n1` [NIZATIDINE], the IC50 result (at Insulin receptor; in assay [1]; in assay [2]; on B2 bradykinin receptor; at Adenosine receptor A2a; in assay [3]) was “Not Active” in each case.
For the molecule `C[C@]12C/C(=C/O)C(=O)C[C@@H]1CC[C@@H]1[C@@H]2CC[C@@]2(C)[C@H]1CC[C@]2(C)O` [OXYMETHOLONE], the IC50 entry (at Insulin receptor; in assay [1]; in assay [2]; against B2 bradykinin receptor; at Adenosine receptor A2a; in assay [3]) was “Not Active” each time.
As for `CC(C)(CO)C(O)C(=O)NCCCO` (centres undefined) [PANTHENOL], the IC50 entry (against Insulin receptor; in assay [1]; in assay [2]; at B2 bradykinin receptor; on Adenosine receptor A2a; in assay [3]) was “Not Active” each time.
Consider `COc1ccc(Cc2nccc3cc(OC)c(OC)cc23)cc1OC` [PAPAVERINE], for which the half-inhibitory concentration (IC50) entry (against Insulin receptor; in assay [1]; in assay [2]; at B2 bradykinin receptor; at Adenosine receptor A2a; in assay [3]) was “Not Active” in each case.
As for `OCCN1CCN(CCCN2c3ccccc3Sc3ccc(Cl)cc32)CC1` [PERPHENAZINE], the IC50 result (at Insulin receptor; in assay [1]; in assay [2]; against B2 bradykinin receptor; on Adenosine receptor A2a; in assay [3]) was “Not Active” each time.
Regarding `CCCCC1C(=O)N(c2ccccc2)N(c2ccccc2)C1=O` [PHENYLBUTAZONE], the IC50 result (at Insulin receptor; in assay [1]; in assay [2]; against B2 bradykinin receptor; on Adenosine receptor A2a; in assay [3]) was “Not Active” in each case.
`Cc1cccc(Nc2cc(Cl)nc(SCC(=O)O)n2)c1C` [PIRINIXIC ACID]: the IC50 entry (against Insulin receptor; in assay [1]; in assay [2]; against B2 bradykinin receptor; at Adenosine receptor A2a; in assay [3]) was “Not Active” each time.
Consider `CC(C)(Sc1cc(C(C)(C)C)c(O)c(C(C)(C)C)c1)Sc1cc(C(C)(C)C)c(O)c(C(C)(C)C)c1` [PROBUCOL], for which the IC50 result (against Insulin receptor; in assay [1]; in assay [2]; against B2 bradykinin receptor; at Adenosine receptor A2a; in assay [3]) was “Not Active” throughout.
Usually Ki stands for the dissociation constant of the complex between target and ligand, obtained from inhibition or displacement. In the case of COBALT(II) ACETYLACETONATE, the IC50 result (at Insulin receptor; in assay [1]; in assay [2]; against B2 bradykinin receptor; on Adenosine receptor A2a; in assay [3]) was “Not Active” in each case. The Ki entry (on Insulin receptor; in assay [1]; in assay [2]; on B2 bradykinin receptor; on Adenosine receptor A2a; in assay [3]) was “Not Active” each time.
On to INSULIN HUMAN, for which the IC50 was 1.93 nM on Insulin receptor (read-out: IC50); “Not Active” in assay [1]; “Not Active” in assay [2]; “Not Active” on B2 bradykinin receptor; “Not Active” at Adenosine receptor A2a; “Not Active” in assay [3]. In addition, the Ki was 1.82 nM at Insulin receptor (read-out: Ki); “Not Active” in assay [1]; “Not Active” in assay [2]; “Not Active” on B2 bradykinin receptor; “Not Active” on Adenosine receptor A2a; “Not Active” in assay [3].
On to POLYVINYL ALCOHOL, for which the IC50 entry (at Insulin receptor; in assay [1]; in assay [2]; at B2 bradykinin receptor; on Adenosine receptor A2a; in assay [3]) was “Not Active” each time. Besides, the Ki entry (at Insulin receptor; in assay [1]; in assay [2]; on B2 bradykinin receptor; on Adenosine receptor A2a; in assay [3]) was “Not Active” throughout.
